From patent US7584718B2, “Growing marine fish in fresh water” (MariCal, Inc., priority 2000, dated 2009) come the findings set out here.

The structures appear in SMILES notation.

This assay has as its system full-length cation receptor (CaR) from the dogfish shark. As to the kind of experiment: Dogfish shark CaR expressed in human HEK cells, response to ionic composition of extracellular fluid. The class given is cell-based. The settings on record: extracellular fluid bathing HEK cells; range from freshwater to seawater. The source says: Polyvalent cation-sensing receptors (PVCRs) serve as salinity sensors in fish. These receptors are localized to the apical membranes of various cells within the fish's body (e.g., in the gills, intestine, kidney) that are known to be responsible for osmoregulation. A full-length cation receptor (CaR) from the dogfish shark has been expressed in human HEK cells. […] The ionic concentrations responded to encompassed the range which includes the transition from freshwater to seawater. Expression of PVCR mRNA is also modulated in fish after their transfer from freshwater to seawater, and is modulated by PVCR agonists.
`[Ca+2]` [Ca^2+, calcium]: the “Receptor response to alterations in ionic composition” value (“Receptor response to alterations” for short) is “respond to alterations”.
For the molecule `[Mg+2]` [Mg^2+, magnesium], the “Receptor response to alterations” value was “respond to alterations”.
Take `[Cl-].[Na+]` [NaCl, sodium chloride]: the “Receptor response to alterations” value is “respond to alterations”.
